Experimental data: publication PMC11258689, “A Snake Venom Peptide and Its Derivatives Prevent Aβ42 Aggregation and Eliminate Toxic Aβ42 Aggregates In Vitro” (ACS Chemical Neuroscience, 2024)
Non-standard residues stand in square brackets, D forms with d. Residues, ends and D or L forms follow the SMILES beside them.

Legend:
Aβ42 oligomers = assay: QIAD assay (Aβ42 aggregate size distribution, oligomer elimination); assay type: biochemical; details: 20 μM peptide added to 80 μM Aβ42 (pre-incubated 2 h), 30 min; density gradient, RP-HPLC UV 214 nm; n = 3
Protocol: In order to evaluate the efficacy of the peptides in eliminating Aβ42 oligomers, QIAD assays were performed.[39] Briefly, lyophilized Aβ42 (80 μM) was incubated for 2 h in sodium phosphate buffer for Aβ42 oligomerization. Then, each peptide (20 μM) was added to the Aβ42 solution and incubated for 30 min. Finally, samples were added on top of an iodixanol density gradient (5–50% (w/v) (OptiPrep, Sigma-Aldrich, Darmstadt, Germany) and centrifuged for 3 h at 4 °C and 259,000 x g (Optima TL-100, Beckman Coulter, Brea, CA, USA). For the sample analysis, 14 fractions (140 μL each) were collected from top to bottom. The top fractions, named fractions 1–2, contained Aβ42-monomers; fractions 4–6 contained the Aβ42-oligomers, which are of special interest; and the bottom fractions 11–14 contained high molecular weight of aggregated Aβ42. Each density gradient fraction was analyzed by Reversed Phase Liquid Chromatography. For this an Agilent 1260 Infinity II (Santa Clara, California, USA) system was equipped with an Agilent Zorbax SB-300 C-8 5 μm, 4.6 × 250 mm Column (Santa Clara, California, USA) and a multi-wavelength detector set to acquire the UV absorbance at 214 nm. H2O + 0.1% trifluoroacetic acid (AppliChem, Darmstadt, Germany) and acetonitrile (Roth, Karlsruhe, Germany) + 0.1% trifluoroacetic acid were used as eluent A and B, respectively. The acquisition method consisted of an initial isocratic step at 15% B, followed by a gradient from 15% B to 45% B in 10 min and another isocratic step at 45% B. The column temperature was set to 80 °C for the entire analysis. This method ensured full separation of the iodixanol density gradient medium and Aβ42 in all fractions. Aβ42 peaks were analyzed and integrated by the Agilent OpenLab 2.5 software. All measurements were performed in triplicate (n = 3), and data are presented as mean ± SM.

Aβ42 aggregates = assay: sFIDA assay of Aβ42 aggregate elimination; assay type: biochemical; details: n = 3; for sFIDA signal reduction compared with the control: 50 nM peptide, 1 nM Aβ42 aggregates, overnight, room temperature, PBS, TIRFM pixel count
Protocol: To determine the influence of peptides on Aβ42 aggregates, an sFIDA assay was performed. The principle was previously described.[29] Therefore, we used pretreated 384 glass bottom microtiterplates (Sensoplate plus, Greiner Bio-One GmbH, Frickenhausen, Germany) to immobilize the capture-antibody Nab228 (Sigma-Aldrich, St. Louis, Missouri, USA) in a concentration of 2.5 μg/mL in 0.1 M carbonate buffer (Carl Roth, Karlsruhe, Germany). After an overnight incubation at 4 °C, the plate was washed five times with TBS and blocked with 80 μL of a 0.5% BSA solution in TBS with 0.03% ProClin 300 (Sigma-Aldrich, St. Louis, Mo, USA) for 1.5 h at room temperature.
The influence of 50 nM CDPs on 1 nM Aβ42 aggregates (prepared according to Ref ([70])) in PBS was determined by incubating them overnight at room temperature and 600 rpm. As a control, the same Aβ42 aggregates concentration was incubated without additions of peptides; instead, the buffer was added to contain the same end concentrations. The plate was washed as previously described, and 20 μL each of the peptide solution and a serial dilution of Aβ42 aggregates standards in PBS were added and incubated for 2 h at room temperature.
Afterward, 20 μL of 0.625 μg/mL IC-16 CF633 (Heinrich Heine Universität Düsseldorf, Germany) in TBS with 0.1% BSA was added to each well and incubated for 1 h at room temperature. This red fluorescently labeled detection antibody was labeled with CF633 succinimidyl ester (Sigma-Aldrich, St. Louis, Missouri, USA) after the manufacturer’s protocol. After a washing step to remove the redundant antibodies, 80 μL of TBS containing 0.03% Proclin were added.
By using a total internal reflection microscopy (TIRFM) (Leica Camera AG, Wetzlar, Germany), measurement (excitation: 635 nm, emission filter: 705/22 nm) was carried out with an oil immersion objective in 100× magnifications as previously described by Kass et al. 2022, and for each well, 25 of 14-bit grayscale images were measured with a size of 1000 × 1000 pixel each. […]

Aβ42 = biological target: T1, Aβ42 (Homo sapiens, UniProt P05067); assay: Thioflavin T (ThT) assay of Aβ42 aggregation; assay type: biochemical; details: 28 μM peptide, 10 μM Aβ42, 5 μM ThT, 24 h, room temperature; mean of n = 3
T1 construct: purchased Bachem, Bubendorf, Switzerland
Protocol: To evaluate the ability of the peptides to prevent Aβ42 aggregation, a ThT assay was performed. Aβ42 (10 μM), ThT (5 μM), and the peptides (28 μM) were incubated in 96-well plates for 24 h at room temperature in a plate reader (Clariostar, BMG Labtech, Ortenberg, Germany). During this time, the ThT fluorescence was measured every 6 minutes with an excitation of 440 nm and emission of 490 nm. The data were corrected considering the blank wells (without Aβ42 and the peptides). None of the peptides interact with ThT alone or has autofluorescence properties. All measurements were performed in triplicate (n = 3), and data are presented as mean ± SM.
Different concentrations were titrated to investigate CDP-1 and -2 dose dependency on the Aβ42 aggregate formation, and a ThT assay was performed as described before. The effect of 0, 0.5, 1, 3, 6, 13, and 28 μM peptides was tested against 10 μM Aβ42 over 24 h. All experiments were performed in triplicate (n = 3), and data are presented as mean ± SM.

SH-SY5Y cells = assay: MTT cell viability assay, SH-SY5Y; assay type: cell-based, human; details: 20 and 40 μM peptide, overnight, n = 3
Protocol: (§1) The cell viability assay was performed using the reduction of [3-(4,5-dimethylthiazol-2-yl)-2,5-diphenyl tetrazolium bromide-MTT] (Merck, Darmstadt, Germany) to investigate the cytotoxicity of the CDPs against SH-SY5Y (human neuroblastoma) and HEK293 (human embryonic kidney) cells. Both cell lines were purchased from the Leibniz Institute DSMZ-German collection of microorganisms and cell cultures GmbH. HEK293 cells were cultivated in Dulbecco’s modified Eagle’s medium high glucose (Merck, Darmstadt, Germany) containing 2% antibiotic solution of 10 000 units Penicillin, 10 mg streptomycin/ml (Merck, Darmstadt, Germany), and 10% fetal bovine serum (Merck, Darmstadt, Germany) at 37 °C with 5% CO2. […]
(§2) According to the manufacturer’s instructions, cell viability was measured using the Cell Proliferation Kit I (Roche, Basel, Switzerland). The absorbance of the formazan product was determined by measuring the absorption at 570 nm and subtracted from the absorbance at 660 nm.
(§3) The SH-SY5Y cells with a density of 10 000 cells (for HEK293 5000 cells) per well (total volume of 100 μL) were added to each well of a 96-well tissue culture plate (VWR North American) and incubated overnight at 37 °C with 5% CO2. […] Finally, the absorbance was measured at 570 and 660 nm using a CLARIO star plate reader (BMG labtech, Ortenberg, Germany), and the cell viability was calculated using eq 2: [drawing 2] […]

HEK293 cells = assay: MTT cell viability assay, HEK293; assay type: cell-based, human; details: 20 and 40 μM peptide, overnight, n = 3
Protocol: as §1, §2, §3

T1 sequence (P05067 672-713 limits assumed): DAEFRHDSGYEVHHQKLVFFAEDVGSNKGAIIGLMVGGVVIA

In the case of `COC(=O)[C@@H](CCCCN)NC(=O)[C@@H](CCSC)NC(=O)[C@@H](CC(=O)O)NC(=O)[C@@H](CS)NC(=O)[C@@H](CCCNC(=N)N)NC(=O)[C@@H](Cc1c[nH]c2ccccc12)NC(=O)[C@@H](CCCNC(=N)N)NC(=O)[C@@H](Cc1c[nH]c2ccccc12)NC(=O)[C@@H](CCCCN)NC(=O)[C@@H](CS)NC(=O)[C@@H](CS)NC(=O)[C@@H](CCCCN)NC(=O)[C@@H](CCCCN)NC(C)=O` [CDP-1D] (Ac-[dK][dK][dC][dC][dK][dW][dR][dW][dR][dC][dD][dM][dK]-OMe; N-terminus and C-terminus assumed), the “Aβ42 in QIAD fraction 6 (oligomers)” value (Aβ42 oligomers) is reported as “significant reduction” and the “sFIDA effect on Aβ42 aggregates” value (Aβ42 aggregates; Aβ42 aggregates treated with peptide, TIRFM) is reported as “decrease in aggregates”.

For `COC(=O)[C@H](CCCCN)NC(=O)[C@H](CCCCN)NC(=O)[C@H](CS)NC(=O)[C@H](CS)NC(=O)[C@H](CCCCN)NC(=O)[C@H](Cc1c[nH]c2ccccc12)NC(=O)[C@H](CCCNC(=N)N)NC(=O)[C@H](Cc1c[nH]c2ccccc12)NC(=O)[C@H](CCCNC(=N)N)NC(=O)[C@H](CS)NC(=O)[C@H](CC(=O)O)NC(=O)[C@H](CCSC)NC(=O)[C@H](CCCCN)NC(C)=O` [CDP-1] (Ac-KMDCRWRWKCCKK-OMe; C-terminus assumed), the “ThT signal / Aβ42 aggregation compared to Aβ42 alone” value (Aβ42) was “no Aβ42 aggregation was determined”, the “Aβ42 in QIAD fractions 4–5 (oligomers)” value (Aβ42 oligomers) was “not detected” and the “sFIDA signal reduction compared with the control” value (Aβ42 aggregates) was 61.1%. For the same compound, the “cytotoxicity in SH-SY5Y cells” value (SH-SY5Y cells) was “nontoxic” and the “cytotoxicity in HEK293 cells” value (HEK293 cells) was “nontoxic”.

With `COC(=O)[C@H](CCCCN)NC(=O)[C@H](CCCCN)NC(=O)[C@H](CO)NC(=O)[C@H](CO)NC(=O)[C@H](CCCCN)NC(=O)[C@H](Cc1c[nH]c2ccccc12)NC(=O)[C@H](CCCNC(=N)N)NC(=O)[C@H](Cc1c[nH]c2ccccc12)NC(=O)[C@H](CCCNC(=N)N)NC(=O)[C@H](CO)NC(=O)[C@H](CC(=O)O)NC(=O)[C@H](CCSC)NC(=O)[C@H](CCCCN)NC(C)=O` [CDP-2] (Ac-KMDSRWRWKSSKK-OMe) the “ThT signal / Aβ42 aggregation compared to Aβ42 alone” value (Aβ42) was “four times smaller”, the “Aβ42 in QIAD fractions 4–5 (oligomers)” value (Aβ42 oligomers) was “not detected” and the “sFIDA signal reduction compared with the control” value (Aβ42 aggregates) was 95.2%. The “cytotoxicity in SH-SY5Y cells” value (SH-SY5Y cells) was “nontoxic” and the “cytotoxicity in HEK293 cells” value (HEK293 cells) was “nontoxic”.
